Data from article PMC5448077, “Development of an orally available inhibitor of CLK1 for skipping a mutated dystrophin exon in Duchenne muscular dystrophy” (Scientific Reports, 2017).

Columns and labels:
Haspin = Haspin (Homo sapiens, UniProt Q8TF76); assay: recombinant kinase panel (IMAP or mobility shift assay), percent inhibition at […] TG693; type: biochemical; conditions: read-out: % inhibition at 1 μM
[1] = molecular target: T1, CDC2-like kinase 1 (CLK1) (Homo sapiens, UniProt P49759); assay: biochemical
Erk2 = molecular target: T2, Erk2 (Homo sapiens, UniProt P28482); assay: biochemical
T2 construct: gene MAPK1
Protocol: (§1) These assays rely on the phosphorylation of small synthetic peptides developed for each kinase, and detect activity by changes in electrophoretic mobility (MSA assay) or by binding of a fluorescently labelled peptide to a large micro-particle and concomitant polarization increases (IMAP assay). Reaction conditions for each kinase are described in Supplementary Table S5. All kinase assays were carried out at Carna Biosciences (Kobe, Japan). The inhibitory map was constructed using Kinome Render[41]. Inhibitor (4×), substrate/ATP-Metal (4×), and kinase (2×) solutions were prepared with assay buffer (20 mM HEPES, 0.01% Triton X-100, 2 mM DTT, pH 7.5) and mixed in 384-well plates at room temperature for 1 or 5 h depending on the kinase. Reactions were stopped by the addition of termination buffer (QuickScout Screening Assist MSA; Carna Biosciences). The entire reaction mixture was then applied to a LabChip system (Perkin-Elmer, Waltham, MA, USA) and the product and substrate peptide peaks were separated and quantified, and then heights of product (P) and substrate (S) peptide peaks were calculated. The level of kinase activity was evaluated with the following equation: activity = P/(P + S).

IKKα = molecular target: T3, IKKα (Homo sapiens, UniProt O15111); assay: biochemical
T3 construct: gene CHUK
Protocol: as §1

CDK9/CycT1 = CDK9/CycT1 (Homo sapiens, UniProt P50750); assay: biochemical
Protocol: as §1

MARK4 = MARK4 (Homo sapiens, UniProt Q96L34); assay: biochemical
Protocol: as §1

MSK1 = molecular target: T4, MSK1 (Homo sapiens, UniProt O75582); assay: biochemical
T4 construct: gene RPS6KA5
Protocol: as §1

QIK = molecular target: T5, QIK (Homo sapiens, UniProt Q9H0K1); assay: biochemical
T5 construct: gene SIK2
Protocol: as §1

FLT1 = FLT1 (Homo sapiens, UniProt P17948); assay: biochemical
Protocol: as §1

PLK1 = PLK1 (Homo sapiens, UniProt P53350); assay: biochemical
Protocol: as §1

PAK2 = PAK2 (Homo sapiens, UniProt Q13177); assay: biochemical
Protocol: as §1

NEK1 = NEK1 (Homo sapiens, UniProt Q96PY6); assay: biochemical
Protocol: as §1

FLT4 = FLT4 (Homo sapiens, UniProt P35916); assay: biochemical
Protocol: as §1

DAPK1 = DAPK1 (Homo sapiens, UniProt P53355); assay: biochemical
Protocol: as §1

DDR2 = DDR2 (Homo sapiens, UniProt Q16832); assay: biochemical
Protocol: as §1

FYN(isoform b) = molecular target: T6, FYN(isoform b) (Homo sapiens, UniProt P06241); assay: biochemical
T6 construct: isoform b
Protocol: as §1

KIT = KIT (Homo sapiens, UniProt P10721); assay: biochemical
Protocol: as §1

RET(G691S) = RET(G691S) (Homo sapiens, UniProt P07949, G691S); assay: biochemical
Protocol: as §1

PDGFRβ = molecular target: T7, PDGFRβ (Homo sapiens, UniProt P09619); assay: biochemical
T7 construct: gene PDGFRB
Protocol: as §1

PAK4 = PAK4 (Homo sapiens, UniProt O96013); assay: biochemical
Protocol: as §1

PEK = molecular target: T8, PEK (Homo sapiens, UniProt Q9NZJ5); assay: biochemical
T8 construct: gene EIF2AK3
Protocol: as §1

FGFR3 = FGFR3 (Homo sapiens, UniProt P22607); assay: biochemical
Protocol: as §1

JAK3 = JAK3 (Homo sapiens, UniProt P52333); assay: biochemical
Protocol: as §1

PIK3CA/PIK3R1 = PIK3CA/PIK3R1 (Homo sapiens, UniProt P42336); assay: biochemical
Protocol: as §1

FGFR1 = FGFR1 (Homo sapiens, UniProt P11362); assay: biochemical
Protocol: as §1

EPHA4 = EPHA4 (Homo sapiens, UniProt P54764); assay: biochemical
Protocol: as §1

CK1ε = molecular target: T9, CK1ε (Homo sapiens, UniProt P49674); assay: biochemical
T9 construct: gene CSNK1E
Protocol: as §1

SGK3 = SGK3 (Homo sapiens, UniProt Q96BR1); assay: biochemical
Protocol: as §1

PLK2 = PLK2 (Homo sapiens, UniProt Q9NYY3); assay: biochemical
Protocol: as §1

BMX = BMX (Homo sapiens, UniProt P51813); assay: biochemical
Protocol: as §1

[2] = molecular target: T1, CDC2-like kinase 1 (CLK1); set-up: recombinant GST-tagged human CLK1; conditions: 1 µM; inhibitor
Protocol: These assays rely on the phosphorylation of small synthetic peptides developed for each kinase, and detect activity by changes in electrophoretic mobility (MSA assay) or by binding of a fluorescently labelled peptide to a large micro-particle and concomitant polarization increases (IMAP assay). […] Inhibitor (4×), substrate/ATP-Metal (4×), and kinase (2×) solutions were prepared with assay buffer (20 mM HEPES, 0.01% Triton X-100, 2 mM DTT, pH 7.5) and mixed in 384-well plates at room temperature for 1 or 5 h depending on the kinase. Reactions were stopped by the addition of termination buffer (QuickScout Screening Assist MSA; Carna Biosciences). The entire reaction mixture was then applied to a LabChip system (Perkin-Elmer, Waltham, MA, USA) and the product and substrate peptide peaks were separated and quantified, and then heights of product (P) and substrate (S) peptide peaks were calculated. The level of kinase activity was evaluated with the following equation: activity = P/(P + S).

T1 sequence (P49759 whole entry): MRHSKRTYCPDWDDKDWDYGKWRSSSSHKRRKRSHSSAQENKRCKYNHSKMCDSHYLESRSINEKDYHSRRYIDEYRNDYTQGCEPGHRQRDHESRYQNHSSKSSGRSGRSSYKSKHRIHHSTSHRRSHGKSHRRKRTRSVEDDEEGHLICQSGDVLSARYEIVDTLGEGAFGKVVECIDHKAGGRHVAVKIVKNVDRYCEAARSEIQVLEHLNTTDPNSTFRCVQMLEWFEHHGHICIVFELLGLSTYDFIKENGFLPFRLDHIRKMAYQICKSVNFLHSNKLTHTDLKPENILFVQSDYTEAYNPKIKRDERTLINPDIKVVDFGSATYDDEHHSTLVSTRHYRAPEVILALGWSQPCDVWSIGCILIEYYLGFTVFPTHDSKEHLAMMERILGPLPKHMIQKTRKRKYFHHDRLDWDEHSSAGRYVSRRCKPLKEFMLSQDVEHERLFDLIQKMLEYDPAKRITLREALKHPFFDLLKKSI
Chain of DDR2 (Q16832 whole entry): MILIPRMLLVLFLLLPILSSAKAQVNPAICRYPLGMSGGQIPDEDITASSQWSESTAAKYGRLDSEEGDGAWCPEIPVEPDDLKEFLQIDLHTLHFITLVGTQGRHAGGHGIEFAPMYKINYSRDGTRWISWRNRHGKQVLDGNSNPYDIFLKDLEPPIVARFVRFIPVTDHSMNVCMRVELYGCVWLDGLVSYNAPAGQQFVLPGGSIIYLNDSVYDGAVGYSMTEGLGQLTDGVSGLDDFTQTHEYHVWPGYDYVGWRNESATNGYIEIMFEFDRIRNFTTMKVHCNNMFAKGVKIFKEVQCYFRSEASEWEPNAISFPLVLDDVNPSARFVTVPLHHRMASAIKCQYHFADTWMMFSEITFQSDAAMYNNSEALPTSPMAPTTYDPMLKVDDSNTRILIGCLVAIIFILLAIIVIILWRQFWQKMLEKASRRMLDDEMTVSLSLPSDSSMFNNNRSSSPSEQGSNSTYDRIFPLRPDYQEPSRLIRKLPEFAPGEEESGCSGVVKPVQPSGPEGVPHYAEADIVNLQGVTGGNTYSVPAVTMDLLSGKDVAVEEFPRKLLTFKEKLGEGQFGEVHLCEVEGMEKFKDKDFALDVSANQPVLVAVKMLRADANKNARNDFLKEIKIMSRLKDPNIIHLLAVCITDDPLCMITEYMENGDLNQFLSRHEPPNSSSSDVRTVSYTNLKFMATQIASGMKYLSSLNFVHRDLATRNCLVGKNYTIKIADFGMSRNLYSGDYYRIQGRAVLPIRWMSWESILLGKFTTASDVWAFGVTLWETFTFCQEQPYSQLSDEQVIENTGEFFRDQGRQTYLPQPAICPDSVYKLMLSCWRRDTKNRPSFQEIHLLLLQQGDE
T7 sequence (P09619 whole entry): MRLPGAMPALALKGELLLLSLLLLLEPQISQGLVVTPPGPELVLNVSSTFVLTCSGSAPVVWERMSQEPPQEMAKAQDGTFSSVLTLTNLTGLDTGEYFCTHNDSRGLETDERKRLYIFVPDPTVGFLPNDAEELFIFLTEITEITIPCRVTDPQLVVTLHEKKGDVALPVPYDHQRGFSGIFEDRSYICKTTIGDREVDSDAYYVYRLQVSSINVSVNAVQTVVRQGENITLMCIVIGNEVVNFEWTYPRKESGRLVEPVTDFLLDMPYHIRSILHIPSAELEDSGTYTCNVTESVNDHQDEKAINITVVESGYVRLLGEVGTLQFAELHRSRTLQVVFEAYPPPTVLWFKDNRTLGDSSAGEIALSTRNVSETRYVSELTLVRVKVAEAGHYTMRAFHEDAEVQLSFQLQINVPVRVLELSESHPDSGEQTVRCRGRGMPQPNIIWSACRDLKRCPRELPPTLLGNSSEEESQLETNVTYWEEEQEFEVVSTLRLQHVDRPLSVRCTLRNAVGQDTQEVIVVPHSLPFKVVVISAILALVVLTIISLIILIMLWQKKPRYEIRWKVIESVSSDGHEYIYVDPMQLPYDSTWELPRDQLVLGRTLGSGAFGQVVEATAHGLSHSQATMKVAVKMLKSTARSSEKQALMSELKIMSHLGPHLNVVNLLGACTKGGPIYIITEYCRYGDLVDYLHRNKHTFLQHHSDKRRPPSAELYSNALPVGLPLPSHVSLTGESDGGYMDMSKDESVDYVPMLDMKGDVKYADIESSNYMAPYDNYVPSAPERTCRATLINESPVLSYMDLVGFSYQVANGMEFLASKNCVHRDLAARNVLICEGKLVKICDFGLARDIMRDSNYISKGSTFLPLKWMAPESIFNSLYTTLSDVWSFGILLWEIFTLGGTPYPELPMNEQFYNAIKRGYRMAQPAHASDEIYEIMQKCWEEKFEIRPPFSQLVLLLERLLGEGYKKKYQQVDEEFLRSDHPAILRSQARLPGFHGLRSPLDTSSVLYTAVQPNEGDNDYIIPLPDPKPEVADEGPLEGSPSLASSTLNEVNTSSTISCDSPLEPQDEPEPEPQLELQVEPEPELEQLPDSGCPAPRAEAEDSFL
Chain of PAK4 (O96013 whole entry): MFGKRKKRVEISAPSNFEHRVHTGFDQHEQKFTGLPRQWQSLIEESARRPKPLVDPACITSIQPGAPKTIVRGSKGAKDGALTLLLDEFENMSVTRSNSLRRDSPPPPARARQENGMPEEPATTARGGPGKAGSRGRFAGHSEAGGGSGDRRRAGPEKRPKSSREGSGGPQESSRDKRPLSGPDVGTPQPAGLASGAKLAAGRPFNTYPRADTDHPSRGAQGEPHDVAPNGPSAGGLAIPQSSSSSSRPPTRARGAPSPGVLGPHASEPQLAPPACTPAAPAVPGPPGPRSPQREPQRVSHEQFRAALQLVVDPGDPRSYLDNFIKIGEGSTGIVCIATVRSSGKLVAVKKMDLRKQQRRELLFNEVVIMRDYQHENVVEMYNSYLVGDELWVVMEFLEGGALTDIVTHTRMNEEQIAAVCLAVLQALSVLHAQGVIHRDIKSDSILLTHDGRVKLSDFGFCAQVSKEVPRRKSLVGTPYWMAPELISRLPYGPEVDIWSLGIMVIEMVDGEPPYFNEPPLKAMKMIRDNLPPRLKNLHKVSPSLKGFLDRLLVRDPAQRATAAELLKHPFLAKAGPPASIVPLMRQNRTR
Chain of PIK3CA/PIK3R1 (P42336 whole entry): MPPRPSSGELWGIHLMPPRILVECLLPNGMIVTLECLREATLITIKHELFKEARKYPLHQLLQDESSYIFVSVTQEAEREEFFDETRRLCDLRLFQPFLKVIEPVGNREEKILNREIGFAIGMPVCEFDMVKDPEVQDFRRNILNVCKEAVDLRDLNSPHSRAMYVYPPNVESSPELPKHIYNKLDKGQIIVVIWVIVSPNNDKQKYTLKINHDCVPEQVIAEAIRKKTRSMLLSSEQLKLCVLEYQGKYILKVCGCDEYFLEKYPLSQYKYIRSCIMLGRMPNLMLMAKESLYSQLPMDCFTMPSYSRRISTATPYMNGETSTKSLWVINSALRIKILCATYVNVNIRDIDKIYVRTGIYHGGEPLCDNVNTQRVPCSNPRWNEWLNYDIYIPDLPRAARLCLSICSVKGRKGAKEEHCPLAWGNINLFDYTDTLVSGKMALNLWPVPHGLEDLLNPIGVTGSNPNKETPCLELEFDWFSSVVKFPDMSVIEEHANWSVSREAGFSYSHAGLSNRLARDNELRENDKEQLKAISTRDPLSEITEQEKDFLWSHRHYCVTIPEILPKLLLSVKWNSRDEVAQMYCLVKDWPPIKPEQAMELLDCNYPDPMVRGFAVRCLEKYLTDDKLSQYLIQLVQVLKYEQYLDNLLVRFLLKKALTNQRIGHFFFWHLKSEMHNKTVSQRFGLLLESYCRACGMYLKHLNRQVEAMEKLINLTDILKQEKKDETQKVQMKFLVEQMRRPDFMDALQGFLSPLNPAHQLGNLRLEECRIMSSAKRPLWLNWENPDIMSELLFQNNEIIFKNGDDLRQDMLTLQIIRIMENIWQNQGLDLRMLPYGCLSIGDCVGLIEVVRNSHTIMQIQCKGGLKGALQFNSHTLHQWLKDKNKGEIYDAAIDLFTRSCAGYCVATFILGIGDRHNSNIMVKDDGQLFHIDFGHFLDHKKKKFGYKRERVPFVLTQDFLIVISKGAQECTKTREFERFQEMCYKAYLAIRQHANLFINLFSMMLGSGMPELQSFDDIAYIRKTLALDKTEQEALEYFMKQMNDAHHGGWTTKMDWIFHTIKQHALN
Chain of PIK3CA/PIK3R1 (P27986 whole entry partner): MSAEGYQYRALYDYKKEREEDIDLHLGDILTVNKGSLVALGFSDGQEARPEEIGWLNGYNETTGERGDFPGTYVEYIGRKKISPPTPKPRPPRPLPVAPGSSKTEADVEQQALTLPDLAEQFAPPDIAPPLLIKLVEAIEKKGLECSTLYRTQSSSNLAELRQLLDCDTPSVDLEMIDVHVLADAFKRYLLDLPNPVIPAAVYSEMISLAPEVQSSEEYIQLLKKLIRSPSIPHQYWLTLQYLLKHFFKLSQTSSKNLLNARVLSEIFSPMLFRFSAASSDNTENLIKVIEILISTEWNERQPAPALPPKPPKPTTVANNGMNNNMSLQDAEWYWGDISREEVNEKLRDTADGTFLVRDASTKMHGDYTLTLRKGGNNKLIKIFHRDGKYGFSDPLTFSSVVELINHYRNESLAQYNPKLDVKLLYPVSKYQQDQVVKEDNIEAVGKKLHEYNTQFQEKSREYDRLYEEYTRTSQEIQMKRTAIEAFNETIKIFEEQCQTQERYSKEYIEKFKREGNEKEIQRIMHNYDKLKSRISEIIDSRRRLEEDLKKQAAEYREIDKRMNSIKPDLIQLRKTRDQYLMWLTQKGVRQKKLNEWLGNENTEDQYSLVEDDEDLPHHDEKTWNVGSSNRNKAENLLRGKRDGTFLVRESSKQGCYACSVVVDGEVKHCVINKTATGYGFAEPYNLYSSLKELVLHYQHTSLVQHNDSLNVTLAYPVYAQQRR

## c1cc(-c2ccc3[nH]ncc3c2)ccn1 [TG693, 5-(4-pyridinyl)-1H-indazole]
Haspin
  inhibition at 1 µM: > 90%
[1]
  Ki: 105 nM
Erk2
  inhibition at 1 µM: -5.8%
IKKα
  inhibition at 1 µM: 14.6%
CDK9/CycT1
  inhibition at 1 µM: 57.8%
MARK4
  inhibition at 1 µM: 25.1%
MSK1
  inhibition at 1 µM: 1.2%
QIK
  inhibition at 1 µM: 3.4%
FLT1
  inhibition at 1 µM: 5.9%
PLK1
  inhibition at 1 µM: -8.5%
PAK2
  inhibition at 1 µM: -51.3%
NEK1
  inhibition at 1 µM: -1.5%
FLT4
  inhibition at 1 µM: -0.3%
DAPK1
  inhibition at 1 µM: -1.8%
DDR2
  inhibition at 1 µM: -2.2%
FYN(isoform b)
  inhibition at 1 µM: 0.6%
KIT
  inhibition at 1 µM: -0.9%
RET(G691S)
  inhibition at 1 µM: 4.9%
PDGFRβ
  inhibition at 1 µM: 3%
PAK4
  inhibition at 1 µM: -13.7%
PEK
  inhibition at 1 µM: 5%
FGFR3
  inhibition at 1 µM: -0.6%
JAK3
  inhibition at 1 µM: 11.6%
PIK3CA/PIK3R1
  inhibition at 1 µM: 36.8%
FGFR1
  inhibition at 1 µM: 6.9%
EPHA4
  inhibition at 1 µM: 2.4%
CK1ε
  inhibition at 1 µM: 8%
SGK3
  inhibition at 1 µM: -3.2%
PLK2
  inhibition at 1 µM: 2.9%
BMX
  inhibition at 1 µM: 4.6%
[2]
  %Inhibition: 92.6%
